Measured values reported in patent publication US20070134233A1, “Compositions and methods relating to organ-, tissue-, and cell-specific antibodies” (Phylonix Pharmaceuticals, Inc., priority 2004, published 2007).
Entries after “also recorded” stand apart in the source; their conditions may differ.

Legend:
[1] = test system: angiogenic vessel growth in zebrafish embryos; assay: Quantitative in vivo microplate assay using Phy-V001 mAb; details: for effect on angiogenic vessel development (discussion summary): 2 dpf and 3 dpf stages; for Vessel Reduction (%) Zebrafish: single dosing, Concentration SU5416 2 μM, Flavopiridol 3 μM
[2] = test system: angiogenic vessel development in zebrafish embryos; assay: Whole mount immunostaining with Phy-V001 of drug-treated embryos; assay type: in vivo; details: for vasculature compared to controls: various concentrations; for vasculature compared to controls / ISV staining by Phy-V001: at 3 dpf; for ISV staining by Phy-V001: 48 hours
[3] = test system: EC; details: serum of patients treated with flavopiridol; cited from earlier work
[4] = test system: zebrafish embryos; assay: Embryo death and body malformation after drug treatment; assay type: in vivo
Protocol: Assay validation with small molecule drugs: Using the whole mount immunostaining technique described supra, several small molecule drugs were tested. […] Flavopiridol is a cyclin-dependent kinase inhibitor known to inhibit cell proliferation (Senderowicz, Invest. New Drugs 17:313-20, 1999). COL-1 and COL-3 are inhibitors of matrix metalloproteases (MMPs), which are known to play a crucial role in vascular endothelial cell migration (Seftor et al. 2001). During early embryo development (˜12 hpf), many structures including the notochord, the somites, and the heart are beginning to form and these structures directly affect both vasculargenesis and angiogenesis. After 20 hpf, since the DA and the PCV are fully formed, drug effects on vessel formation are less likely to be secondary effects (indirect effects due to damage to the notochord, somites, or heart). Therefore, ˜1 dpf was chosed as the time point to initiate drug treatment. Embryos were incubated with varying concentrations of each drug continuously for 48 hours. Drug effects were examined at 2 dpf and 3 dpf.

[5] = test system: activated endothelial cells in the zebrafish embryo; assay: Quantitative in vivo EC proliferation assay (whole animal Phy-V002 ELISA); details: ~20 hpf embryos treated for 28 hours
Protocol: Quantitative in vivo EC proliferation assay: Embryos were fixed by Dent's fixative (DMSO/methanol=1/3) at room temperature (23+2° C.) for 3 hours, dehydrated to 100% EtOH following standard dehydration procedures. Embryos were then permeabilized, rehydrated, treated with horseradish peroxidase (HRP) suppressor to inhibit endogenous HRP. After treatment with 1 M NH4Cl at room temperature for 3 hours to quench autofluorescence, embryos were then blocked and incubated with Phy-V002 mAb following a standard procedure (see Westerfield, supra). After washing with PBST, embryos were incubated with HRP-conjugated secondary antibody. QuantaBlu (Pierce) was used as the fluorescence enzyme substrate; the stained EC was quantified by measuring the fluorescence units of the enzymatic end product at 315-340 nm (excitation)/370-470 nm (emission) using SPECTRAmax Gemini microplate reader (Molecular Devices).
Drug effect on EC proliferation was calculated by the following formula: [formula]

[6] = test system: zebrafish embryos; assay: Embryo growth inhibition by body length; assay type: in vivo; details: 5 μM for 4 days
Protocol: Drugs cause growth retardation: Many drugs cause growth inhibition. […] 1 dpf embryos are treated with identified “hit” drugs at various concentrations for 4 days. Body length is measured at 5 dpf and plotted against drug concentration. Normal untreated and 0.1% DMSO treated embryos are used as controls. At least 10 embryos are used for each condition.

[7] = test system: Mouse Tumor; details: 12 mg/ml/day, dosing frequency 18; cited from earlier work
[8] = test system: vessel formation in zebrafish embryos; assay: In vivo vessel formation assay (Phy-V002 staining); details: 2 dpf embryos
Source text: In vivo vesselformation assay: Embryos were processed as described in “In vivo EC migration Assay,” supra, and examined by fluorescence microscopy. Images of stained embryos were captured by CCD camera and analyzed by Adobe Photoshop software. Higher magnification (10×) images of control and drug treated embryos at the region where vessel defects were observed were quantitated by morphometric analysis (Signal (S)=[area (pixel) X signal intensity]) using Scion Image program. Percent (%) inhibition in vessel formation can be calculated by the following formula: [formula] Results 1. Quantitative in Vivo EC Proliferation Assay

Structure (SMILES): NC(=O)C1=C(O)C[C@@H]2C[C@@H]3Cc4cccc(O)c4C(=O)C3=C(O)[C@]2(O)C1=O [COL-3]
- maximum inhibition of angiogenic vessel growth ([1]; 5 μM, at 2 dpf): ~39%
- inhibition on angiogenic vessel development ([1]; 1 to 10 μM, at 3 dpf): ~25%
- effect on angiogenic vessel development (discussion summary) [1]: significant inhibitory effect
- Change in vessel pattern ([2]; at 2 dpf, concentration not given): caused a loss of a few ISVs
- vasculature compared to controls [2]: appeared unchanged

Structure (SMILES): CN1CC[C@H](c2c(O)cc(O)c3c(=O)cc(-c4ccccc4Cl)oc23)[C@H](O)C1 [flavopiridol]
- Vessel Reduction (%) EC Proliferation [3]: ˜32%
- Vessel Reduction (%) EC Proliferation, range [3]: (8-70% range)
- body formation of surviving embryos ([4]; 5 μM, at 2 dpf): truncated body formation
- embryos died ([4]; 5 μM, at 2 dpf): ~16%
- embryos died ([4]; 7 μM, at 2 dpf): ~20%
- embryos died ([4]; 7 μM, at 3 dpf): All the 7 μM flavopiridol treated embryos died
- inhibition at 1 µM ([1]; Danio rerio, 1 μM, at 2 dpf): 13%
- inhibition at 3 µM ([1]; Danio rerio, 3 μM, at 2 dpf, read-out: maximum inhibition of angiogenic vessel growth): ~27%
- inhibition at 5 µM ([1]; Danio rerio, 5 μM, at 3 dpf): ~17%
- Vessel Reduction (%) Zebrafish [1]: ˜27%
- Inhibition of angiogenic vessel development (Phy-V001 staining) ([2]; 1 μM, at 2 dpf): inhibitory effect was not obvious
- Inhibition of angiogenic vessel development (Phy-V001 staining) ([2]; 3 μM, at 2 dpf): ISV staining in the trunk region decreased
- Inhibition of angiogenic vessel development (Phy-V001 staining) ([2]; 5 μM, at 2 dpf, surviving embryos): dramatic decrease in ISV staining
- Inhibition of angiogenic vessel development (Phy-V001 staining) ([2]; 7 μM, at 2 dpf, surviving embryos): decreased staining in ISVs
- ISV staining by Phy-V001 ([2]; 1, 3, and 5 μM): staining intensity appeared weaker
- % inhibition in EC proliferation, dose response [5]: % inhibition in EC proliferation increasing proportionally with drug concentration
- overall embryo growth, body length [6]: caused inhibition of overall embryo growth

Structure (SMILES): Cc1cc(C)c(/C=C2\C(=O)Nc3ccccc32)[nH]1 [SU5416]
- body formation of surviving embryos ([4]; 20 μM, at 2 dpf): truncated body formation
- inhibition in angiogenic vessel growth ([1]; 48 hours treatment, at 3 dpf, surviving embryos): No significant inhibition
- inhibition at 15 µM ([1]; Danio rerio, 15 μM, at 2 dpf, read-out: maximum inhibition in vessel growth): ~40.5%
- Vessel Reduction (%) Zebrafish [1]: ˜40.5%
- Inhibition of angiogenic vessel development (Phy-V001 staining) ([2]; 10 μM, 24 hours, at 2 dpf): inhibitory effect was not obvious
- Inhibition of angiogenic vessel development (Phy-V001 staining) ([2]; 15 μM, 24 hours, at 2 dpf): dramatic decrease in Phy-V001 staining
- Inhibition of angiogenic vessel development (Phy-V001 staining) ([2]; 20 μM, at 2 dpf, surviving embryos): ISVs were barely detectable
- ISV staining by Phy-V001 ([2]; 10 and 15 μM): staining was weaker
- Vessel Reduction (%) Mouse Tumor [7]: ˜42%
- vessel formation (cranial vessels and ISVs) ([8]; 1 μM): partially missing; also recorded: abnormal when compared to control embryos
- vessel formation (cranial vessels and ISVs) ([8]; 2.5 μM and higher): nearly completely absent

Structure (SMILES): COc1cc2c(cc1O)CC[C@@H]1[C@@H]2CC[C@]2(C)[C@@H](O)CC[C@@H]12 [2-methoxyestradiol]
- % inhibition in EC proliferation, dose response [5]: % inhibition in EC proliferation increasing proportionally with drug concentration

Structure (SMILES): Cc1[nH]c(/C=C2\C(=O)Nc3ccc(Br)cc32)c(C)c1CCC(=O)O [SU9518]
- angiogenic vessel inhibition ([1]; 0.1 μM to 100 μM, at 2 dpf): did not result in any angiogenic vessel inhibition
- effect on angiogenic vessel development (discussion summary) [1]: did not have any effect
- Change in vessel development compared to control ([2]; 0.1 μM to 100 μM, at 2 dpf): did not cause a change in vessel development
- vasculature compared to controls [2]: appeared unchanged
